In patent EP1464649A2, “Sugar derivatives comprising oxiranes or alpha,beta-unsaturated gamma-lactones, process for their preparation and their utilisation as pesticides” (Instituto Politécnico de Santarém / Escola Superior Agraria, priority 2003, dated 2004):
In brackets after ≈: the same amount, converted by molar mass. Entries after “also recorded” stand apart in the source; their conditions may differ.

Legend:
[1] = tested on: brine shrimp A. salina larvae; assay: in vivo; assay type: in vivo; conditions: Method F, 24 hour mortalities
Method: (§1) Freshly hatched brine shrimps were prepared by adding aquarium brine shrimp eggs to salt water (15 g sea salt per litre water). The following day hatchlings were separated from eggs and empty egg cases, using their phototropic movement and a Pasteur pipette.
(§2) Into each of a set of small glass vials was pipetted 195 µL of brine containing 5 shrimp larvae, using a micropipette. The solution of the test compound in 5 µL acetone was added, the vial closed and kept at 30±1°C for observation.
(§3) Dead and alive shrimps were counted, at 1 and 24 hours after treatment, using a microscope. Six concentrations and a control were used with 10 shrimps treated.
(§4) A blank test was performed for comparison of the results.
(§5) Dosages used in insect treatments were based upon the amount of compound applied to each insect. For the shrimps the final concentrations of the compounds in the immersion brine were used.
(§6) The 24 hour mortalities were used to calculate the LD50/LC50 using regression analysis of the probability percent mortality (probit) against log dose/concentration.^30 This was calculated using PoloPC software (LeOra Software, Berkeley, CA, 1994).

[2] = tested on: adult fruit fly (D. melanogaster); assay: Method A: topical treatment of adult fruit fly; assay type: in vivo, Drosophila melanogaster; conditions: for LD50: Method A, topical, adult fruit flies, 24 hour mortalities; for activity against adult fruit flies: statement in words from LD50 values
Method: A culture of fruit flies (D. melanogaster) was used in the production of adult flies (approx 0.22 mg) of about seven days.
Serial dilutions of the compounds were prepared in acetone, and volumes of approximately 0.2 µL were applied to the ventral surface of each insect, using a calibrated PAX 100 microapplicator and a 1 mL syringe.
The fruit flies, in groups of 5, were anaesthetised using carbon dioxide. Prior to recovery the flies were placed in a containing vial and kept at 30±1°C, for observations of mortality at 1, 2, 3 and 24 hours after treatment.
For this purpose solutions of 6 different concentrations and a control were employed in groups of 12 and 20 insects. Control mortalities were normally zero but occasionally rose to 5-10%.
as §5, §6

[3] = tested on: adult fruit flies; assay: Method B: second method for topical treatment of adult fruit flies; assay type: in vivo, Drosophila melanogaster; conditions: topical 1 µL acetone solution
Method: Different dilutions of the compounds in acetone were prepared and applied to individual fruit flies using a Gilson piston micropipette.
Individual flies were held in padded forceps and 1 µL of acetone solution was applied. The acetone was allowed to evaporate before placing the fly into the vial for observation, kept at 30±1°C, following the standard methodology.
as §6

[4] = tested on: glasshouse white fly (T. vaporariorum); assay: Method G: foliar treatment of glasshouse white fly; assay type: in vivo; conditions: for efficacy against white fly: statement in words
Method: Seedlings of tomato plants were infested with adult white fly. Selected leaves of the tomato plants were excised and carefully trimmed to 3 leaflets without disturbing the infestation. These were placed in glass tubes containing water and the leaflets were then sprayed on both sides with a small sprayer delivering for each one 200 µL of a solution of the test compound dissolved in 30% acetone in water.
Controls were sprayed with the solvent alone.
Counts of insects on the individual leaflets were made immediately after spraying and then at 14 hours following.
Where single dose treatments were used (in the case of whitefly assays), no statistics are available and the results are expressed as percent effect.
Five compounds were tested, which were applied spraying 600 µL of each compound solution (prepared according to method G) on the leaves of tomato plants infested with a known number of adult whitefly. After 14 hours, the number of dead insects (or eventually of insects that disappeared) was counted. These assays were performed at room temperature, between 20 and 25°C.

[5] = tested on: house fly adults (M. domestica); assay: Method E: topical treatment of house fly adults; assay type: in vivo, Musca domestica; conditions: adult house flies
Method: A culture of an insecticide-susceptible strain, Cooper, was established. Three-day-old adult house flies (body weight about 1.8 mg) were anaesthetised with carbon dioxide. Using the PAX microapplicator, a volume of 1 µL of acetone solution of the test compounds was applied to the dorsal cuticle, holding the fly in padded forceps.
Groups of flies were placed into closed vials, kept at 30 ±1°C, for observation.
as §6

[6] = tested on: fruit fly larvae; assay: Method D: topical treatment of fruit fly larvae; assay type: in vivo, Drosophila melanogaster; conditions: for LD50: Method D, topical, fruit fly larvae; for toxicity for fruit fly larvae compared with adult flies: statement in words
Method: Fruit fly larvae were separated from the growing medium and second and third instars were topically treated with 0.2 µL acetone solutions of the compounds using a PAX microapplicator.
Larvae were held in padded forceps for dosing and then placed on moistened filter paper, at 30±1°C, for observation.
as §6

[7] = in vivo; assay type: in vivo; conditions: in vivo; Method F, brine shrimp larvae, 24 hour mortalities
Method: as §1, §2, §3, §4, §5, §6

Compound	LC50 [1] [µg/mL]	LD50 [2]	activity against adult fruit flies [2]	also measured
CC1=C[C@H]([C@H]2O[C@@H]3OC(C)(C)O[C@@H]3[C@H]2OCc2ccccc2)OC1=O [Compound 1, 3-O-benzyl-6,7-dideoxy-1,2-O-isopropylidene-7-methyl-α-D-gluco-oct-6-enefuranurono-8,5-lactone]	100.62 (≈ 290 µM)	0.00002 µg/insect	extremely active	–
CC1=C[C@H]([C@H]2O[C@@H]3OC(C)(C)O[C@@H]3[C@@H]2OCc2ccccc2)OC1=O [Compound 2, 3-O-benzyl-6,7-dideoxy-1,2-O-isopropylidene-7-methyl-α-D-alo-oct-6-enefuranurono-8,5-lactone]	64.30 (≈ 186 µM)	–	extremely active	LD50 [3]: 0.00398 µg/insect
CC1(C)O[C@H]2O[C@H]([C@H]3C=CC(=O)O3)[C@@H](OCc3ccccc3)[C@H]2O1 [Compound 3, 3-O-benzyl-6,7-dideoxy-1,2-O-isopropylidene-α-D-alo-oct-6-enefuranurono-8,5-lactone]	144.71 (≈ 435 µM)	5.02x10^-6 µg/insect	extremely active	% Control of White Fly ([4]; foliar, 14 h, 1.3 ug/mL): 0%
CC1(C)O[C@H]2O[C@H]([C@H]3C=CC(=O)O3)[C@H](OCc3ccccc3)[C@H]2O1 [Compound 4, 3-O-benzyl-6,7-dideoxy-1,2-O-isopropylidene-α-D-gluco-oct-6-enefuranurono-8,5-lactone]	358.92 (≈ 1080 µM)	0.00012 µg/insect	–	% Control of White Fly ([4]; foliar, 14 h, 2.5 ug/mL): 50%; efficacy against white fly [4]: show efficacy as insecticides; also recorded: promising for activity against the white fly
CC(=O)OC[C@H]1OC(=O)C(Br)=C[C@@H]1OC(C)=O [Compound 5, 4,6-di-O-acetyl-2-bromo-2,3-dideoxy-D-erythro-hex-2-enone-1,5-lactone]	38.36 (≈ 125 µM)	0.00016 µg/insect	–	LD50 [5]: 1.065 µg/insect; LD50 [6]: 4.75 µg/insect; toxicity for fruit fly larvae compared with adult flies [6]: less toxic for larvae than for adult flies
COC1OC(C2CC(C)([Se]c3ccccc3)C(=O)O2)C2OC12 [Compound 6, methyl (7R)-/(7S)-2,3-anhydro-6,7-dideoxy-7-methyl-7-phenylselenyl-β-L-gulo-octofuranurono-8,5-lactone]	125.48 (≈ 340 µM)	0.00015 µg/insect	–	% Control of White Fly ([4]; Concentration 1.3 µg/mL, sprayed tomato leaves, 14 hours): 0%
CC1(C)OC2OC(C3CC(C)([Se]c4ccccc4)C(=O)O3)C(OCc3ccccc3)C2O1 [Compound 8, (7R)-/(7S)-3-O-Benzyl-6,7-dideoxy-1,2-O-isopropylidene-7-methyl-7-phenylselenyl-α-D-gluco-octofuranurono-8,5-lactone]	220.41 (≈ 438 µM)	0.00037 µg/insect	–	LD50 [5]: 0.644 µg/insect; toxicity for fruit fly larvae compared with adult flies [6]: less toxic for larvae than for adult flies
O=[N+]([O-])NC1=NCCN1Cc1ccc(Cl)nc1 [Imidacloprid, reference compound]	–	0.01253 µg/insect	–	LC50 at 24 h [7]: 0.0312 µg/mL (≈ 0.122 µM)
(7R)-/(7S)-3,6,7-Trideoxy-1,2-O-isopropylidene-7-methyl-7-phenylselenyl-α-D-ribo-octofuranurono-8,5-lactone [Compound 7]	261.04	0.0002 µg/insect	–	LD50 [6]: 0.968 µg/insect; % Control of White Fly ([4]; Concentration 4.8 µg/mL, sprayed tomato leaves, 14 hours): 0%
Methyl 2,3;5,6-Dianhydro-β-L-gulofuranoside [Compound 9]	671.50	0.00003 µg/insect	extremely active	% Control of White Fly ([4]; Concentration 2.5 µg/mL, sprayed tomato leaves, 14 hours): 85%; efficacy against white fly [4]: show efficacy as insecticides; also recorded: promising for activity against the white fly
